Assays:
Assay type in all cases: cell-based
[1] = test system: full-length Gaussia princeps luciferase; test: Activity of full-length Gaussia luciferase alone in H4 cells; conditions: 10 μM, FIG. 14
Description: (§1) For controls in this assay, vehicle (i.e., DMSO), rapamycin, and bafilomycin A were used. Rapamycin, or sirolimus, is a small molecule that activates autophagy by inhibiting mTOR (mammalian target of rapamycin). […] To test this possibility, cells expressing α-synuclein were treated with each of the compounds and a cell permeable, resazurin-based assay was used to test for cell viability.
(§2) H4 neuroglioma cells (ATCC, HTB-148) were maintained in Dulbecco's Modified Eagle Medium plus high glucose, L-glutamine, and sodium pyruvate (ThermoFisher, 11995-065) with 10% heat-inactivated fetal bovine serum (ThermoFisher, 16140071) and 1% antibiotic-antimycotic cocktail (ThermoFisher, 15240062) at 37° C. and 5% CO2. DNA expression constructs encoding for full-length human α-synuclein fused to the N-terminal fragment of Gaussia princeps luciferase (syn-luc1), full-length human α-synuclein fused to the C-terminal fragment of Gaussia princeps luciferase (syn-luc2), and full-length Gaussia princeps luciferase were kindly provided by Dr. Pamela McLean, Mayo Clinic Jacksonville.^33 Cells were transiently co-transfected with syn-luc1 and syn-luc2 or transfected with luciferase alone using Superfect transfection reagent (Qiagen, 301305) according to the manufacturer's instructions. Twenty-four hours after transfection, cells were plated on a 96-well microplate at 60,000 cells per well. Twenty-four hours after plating, cells were treated with drugs or vehicle control. Following 24 hours of treatment, cells were washed 1 time with PBS and bioluminescence was measured using an automated CLARIOstar plate reader (Mandel, 430-0505). Cell permeable, native coelenterazine was used as the Gaussia luciferase substrate. Lyophilized coelenterazine (Nanolight, 303-500) was reconstituted in NanoFuel Solvent (Nanolight, 399-1), then diluted in PBS to 16.6 μg/mL, and dispensed per well to a final concentration of 20 μM). The bioluminescent signal generated by the luciferase enzyme was assessed at 470 nm over 5 seconds. Raw luminescence units were normalized to the DMSO vehicle control of each 96-well microplate. To assess cell viability, H4 neuroglioma cells were prepared and treated as described above and, 1 hour prior to viability analysis, cells were treated with PrestoBlue viability reagent (ThermoFisher, A13261) according to the manufacturer's instructions. Fluorescence was automatically measured using a CLARIOstar plate reader (Mandel, 430-0505) and then normalized to the fluorescence measure of the DMSO vehicle control.

α-synuclein oligomers [2] = target: T1, α-synuclein oligomers (Homo sapiens, UniProt P37840); test: Gaussia luciferase protein-fragment complementation cell assay of α-synuclein oligomers in H4 neuroglioma cells; set-up: full-length human α-synuclein fused to the N-terminal fragment of Gaussia princeps luciferase (syn-luc1); full-length human α-synuclein fused to the C-terminal fragment of Gaussia princeps luciferase (syn-luc2); expressed in transfected cells; host or cells: H4 neuroglioma cells (ATCC, HTB-148), transient co-transfection; conditions: 1 μM or 10 μM, Example 9
Description: as §1, §2
We used a bioluminescent protein-fragment complementation assay in which human H4 neuroglioma cells co-express human α-synuclein tagged with the N- or C-terminal half of Gaussia princeps luciferase (FIG. 12). Reconstitution of a complete and active luciferase molecule from the fragments occurs upon α-synuclein oligomerization, and so luminescence provides an indirect measure of α-synuclein oligomer levels. H4 neuroglioma cells were co-transfected with α-syn luciferase fragments, and constructs were plated into a 96-well plate and treated with either 1 μM or 10 μM of each of the 19 drug compounds.

α-synuclein oligomers [3] = target: T1, α-synuclein oligomers; test: Venus YFP protein-fragment complementation assay in rat primary cortical neurons; conditions: 10 μM, 72 hours
Description: Specifically, adeno-associated viral vectors (AAV) were used to co-express human α-synuclein tagged with the N- or C-terminal half of Venus yellow fluorescent protein (YFP) in rat cortical neurons.
Pregnant Sprague Dawley rats (E17) were purchased from Charles River. Embryos were surgically removed, and neurons were harvested in a sterile environment. Neurons were plated on poly-D-lysine coated glass coverslips at a density of 5×10^5 cells per well in Neurobasal-A medium, (Gibco, 10888022) supplemented with B27 (2%) (Gibco, 17504044), antibiotic-antimycotic (1%) (Gibco, 15240062), and Glutamax (1%) (Gibco, 35050061). Fifty percent media changes were performed every 3 days. […] Two days post isolation, neurons were co-transduced with AAV-V1 S and AAV-SV2 or transduced with AAV-Venus alone at a MOI of 3,000. […] Concentrations were selected to avoid neuron toxicity according to previous reports.^57-61 Drug-containing media was removed, and cells were washed 1 time with ice-cold PBS before being fixed with 4% PFA (Sigma) at room temperature for 10 minutes. Levels of α-synuclein oligomers were measured by YFP fluorescence. […] YFP fluorescence intensity was analysed automatically using Imaris imaging software (Oxford Instruments). […]

## Nc1nc(NC2CC2)c2ncn([C@H]3C=C[C@@H](CO)C3)c2n1 [Abacavir, abacavir]
[1]
  changes in the activity of full-length Gaussia luciferase alone: No statistically significant changes
α-synuclein oligomers [2]
  α-syn oligomers as measured by luciferase activity: significant decrease
α-synuclein oligomers [3]
  YFP fluorescence compared with vehicle control: significantly reduced

Reference: patent US20250134895A1, “METHODS AND COMPOSITIONS FOR TREATING ALPHA-SYNUCLEIN-MEDIATED NEURODEGENERATION” (UNIVERSITY HEALTH NETWORK, priority 2021, published 2025)
